Reference: PubChem BioAssay (NCI)
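Dose response: 5 concentrations. Exposure: 48 h. Format: 96-well plates. Endpoint: linear interpolation; highest concentration if not reached. TGI denotes the concentration required for complete inhibition of growth.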

How the values were obtained:
Assay in all cases: NCI anticancer screen, dose series, 48 h
IGROV1 ovarian = tested on: IGROV1 ovarian
HOP-92 NSCLC = tested on: HOP-92 NSCLC
MDA-MB-231 breast = tested on: MDA-MB-231 breast
K-562 leukemia = tested on: K-562 leukemia
A549 NSCLC = tested on: A549 NSCLC
CAKI-1 renal = tested on: CAKI-1 renal
786-0 renal = tested on: 786-0 renal
RXF 393 renal = tested on: RXF 393 renal
ACHN renal = tested on: ACHN renal
COLO 205 colon = tested on: COLO 205 colon
OVCAR-4 ovarian = tested on: OVCAR-4 ovarian
HL-60(TB) leukemia = tested on: HL-60(TB) leukemia
OVCAR-8 ovarian = tested on: OVCAR-8 ovarian
OVCAR-5 ovarian = tested on: OVCAR-5 ovarian
MDA-N = tested on: MDA-N
SF-295 CNS = tested on: SF-295 CNS
HOP-62 NSCLC = tested on: HOP-62 NSCLC
UACC-257 melanoma = tested on: UACC-257 melanoma
SF-539 CNS = tested on: SF-539 CNS
DMS 273 small cell lung = tested on: DMS 273 small cell lung
MDA-MB-435 = tested on: MDA-MB-435
HOP-18 NSCLC = tested on: HOP-18 NSCLC
CCRF-CEM leukemia = tested on: CCRF-CEM leukemia
NCI-H460 lung = tested on: NCI-H460 lung
SK-MEL-2 melanoma = tested on: SK-MEL-2 melanoma
HT29 colon = tested on: HT29 colon
SK-OV-3 ovarian = tested on: SK-OV-3 ovarian
SW-620 colon = tested on: SW-620 colon
UACC-62 melanoma = tested on: UACC-62 melanoma
DMS 114 small cell lung = tested on: DMS 114 small cell lung
HCT-15 colon = tested on: HCT-15 colon
LXFL 529 NSCLC = tested on: LXFL 529 NSCLC
BT-549 breast = tested on: BT-549 breast
KM20L2 colon = tested on: KM20L2 colon
SR leukemia = tested on: SR leukemia
TK-10 renal = tested on: TK-10 renal
SN12C renal = tested on: SN12C renal
NCI-H23 lung = tested on: NCI-H23 lung
M19-MEL melanoma = tested on: M19-MEL melanoma
HS 578T breast = tested on: HS 578T breast
SK-MEL-5 melanoma = tested on: SK-MEL-5 melanoma
PC-3 prostate = tested on: PC-3 prostate
HCC-2998 colon = tested on: HCC-2998 colon
RPMI-8226 leukemia = tested on: RPMI-8226 leukemia
SNB-19 CNS = tested on: SNB-19 CNS
KM12 colon = tested on: KM12 colon
DLD-1 colon = tested on: DLD-1 colon
LOX IMVI melanoma = tested on: LOX IMVI melanoma
MOLT-4 leukemia = tested on: MOLT-4 leukemia
XF 498 CNS = tested on: XF 498 CNS
EKVX NSCLC = tested on: EKVX NSCLC
DU-145 prostate = tested on: DU-145 prostate
M14 melanoma = tested on: M14 melanoma
NCI-H226 lung = tested on: NCI-H226 lung
NCI/ADR-RES ovarian = tested on: NCI/ADR-RES ovarian
T-47D breast = tested on: T-47D breast
U251 CNS = tested on: U251 CNS
MCF7 breast = tested on: MCF7 breast
MALME-3M melanoma = tested on: MALME-3M melanoma
SNB-75 CNS = tested on: SNB-75 CNS
A498 renal = tested on: A498 renal
UO-31 renal = tested on: UO-31 renal
NCI-H522 lung = tested on: NCI-H522 lung
SF-268 CNS = tested on: SF-268 CNS
HCT-116 colon = tested on: HCT-116 colon
SK-MEL-28 melanoma = tested on: SK-MEL-28 melanoma
OVCAR-3 ovarian = tested on: OVCAR-3 ovarian

With `COc1ccc(/C=c2/s/c(=C(\C#N)c3nc4ccccc4[nH]3)n(-c3ccccc3)c2=O)cc1` the TGI (IGROV1 ovarian) was greater than 100 µM, the TGI (HOP-92 NSCLC) was 37.7 µM and the TGI (MDA-MB-231 breast) was 49.5 µM. The TGI (K-562 leukemia) was greater than 100 µM, the TGI (A549 NSCLC) was greater than 100 µM and the TGI (CAKI-1 renal) was greater than 100 µM. For the same compound, the TGI (786-0 renal) was greater than 42.1 µM, the TGI (RXF 393 renal) was greater than 100 µM and the TGI (ACHN renal) was greater than 100 µM. The TGI (COLO 205 colon) was greater than 100 µM, the TGI (OVCAR-4 ovarian) was 28.1 µM and the TGI (HL-60(TB) leukemia) was greater than 100 µM. The TGI (OVCAR-8 ovarian) was 51 µM, the TGI (OVCAR-5 ovarian) was greater than 100 µM and the TGI (MDA-N) was greater than 100 µM. For the same compound, the TGI (SF-295 CNS) was greater than 100 µM, the TGI (HOP-62 NSCLC) was greater than 54 µM and the TGI (UACC-257 melanoma) was greater than 100 µM. It also gave a TGI (SF-539 CNS) greater than 61.5 µM, a TGI (DMS 273 small cell lung) greater than 100 µM and a TGI (MDA-MB-435) greater than 100 µM. For the same compound, the TGI (HOP-18 NSCLC) was 79 µM, the TGI (CCRF-CEM leukemia) was greater than 100 µM and the TGI (NCI-H460 lung) was greater than 74.9 µM. It also gave a TGI (SK-MEL-2 melanoma) greater than 100 µM, a TGI (HT29 colon) of 24.7 µM and a TGI (SK-OV-3 ovarian) of 71.6 µM. It also gave a TGI (SW-620 colon) greater than 58.9 µM, a TGI (UACC-62 melanoma) greater than 47.5 µM and a TGI (DMS 114 small cell lung) greater than 100 µM. The TGI (HCT-15 colon) was greater than 100 µM, the TGI (LXFL 529 NSCLC) was greater than 100 µM and the TGI (BT-549 breast) was 54.8 µM. It also gave a TGI (KM20L2 colon) greater than 100 µM, a TGI (SR leukemia) greater than 100 µM and a TGI (TK-10 renal) greater than 100 µM. The TGI (SN12C renal) was greater than 100 µM, the TGI (NCI-H23 lung) was greater than 63.5 µM and the TGI (M19-MEL melanoma) was greater than 100 µM. For the same compound, the TGI (HS 578T breast) was 22.4 µM, the TGI (SK-MEL-5 melanoma) was greater than 100 µM and the TGI (PC-3 prostate) was 67.3 µM. For the same compound, the TGI (HCC-2998 colon) was greater than 100 µM, the TGI (RPMI-8226 leukemia) was greater than 100 µM and the TGI (SNB-19 CNS) was greater than 100 µM. For the same compound, the TGI (KM12 colon) was greater than 100 µM, the TGI (DLD-1 colon) was greater than 100 µM and the TGI (LOX IMVI melanoma) was greater than 100 µM. The TGI (MOLT-4 leukemia) was greater than 100 µM, the TGI (XF 498 CNS) was 88.6 µM and the TGI (EKVX NSCLC) was greater than 100 µM. For the same compound, the TGI (DU-145 prostate) was greater than 100 µM, the TGI (M14 melanoma) was greater than 100 µM and the TGI (NCI-H226 lung) was 92.7 µM. The TGI (NCI/ADR-RES ovarian) was 20.3 µM, the TGI (T-47D breast) was greater than 100 µM and the TGI (U251 CNS) was greater than 100 µM. The TGI (MCF7 breast) was greater than 100 µM, the TGI (MALME-3M melanoma) was greater than 88.6 µM and the TGI (SNB-75 CNS) was greater than 68.8 µM. It also gave a TGI (A498 renal) greater than 76.5 µM, a TGI (UO-31 renal) greater than 100 µM and a TGI (NCI-H522 lung) greater than 100 µM. The TGI (SF-268 CNS) was greater than 100 µM, the TGI (HCT-116 colon) was greater than 55.7 µM and the TGI (SK-MEL-28 melanoma) was greater than 100 µM. For the same compound, the TGI (OVCAR-3 ovarian) was greater than 75.3 µM.
